Patent US9868730B2, “Kappa opioid receptor selective compounds, compositions, and uses thereof” (The Trustees of Columbia University in the City of New York, priority 2013, dated 2018)
Entries after “also recorded” stand apart in the source; their conditions may differ.

Experiments:
[1] = target: T1, KOP receptor (Homo sapiens, UniProt P41145); experiment: BRET-based arrestin3 recruitment assay; type: cell-based; parameters: host or cells: HEK293T; conditions: hKOP-RLuc8 with arrestin3-mVenus; read-out: potency of arrestin3 recruitment at hKOP
Excerpt: (§1) The cDNAs for human KOP (hKOP) receptor and the G protein GαoB were obtained from the Missouri S&T cDNA Resource Center. For arrestin recruitment experiments, full-length Renilla luciferase 8 (RLuc8, provided by S. Gambhir) was fused in-frame to the C terminus of the hKOP receptor in the pcDNA3.1 vector. The following human G protein constructs were provided by C. Gales (Gales et al., 2006; Sauliere et al., 2012): GαoB with RLuc8 inserted at position 91 (GαoB-RLuc8); untagged Gβ1 (β1); untagged Gγ2 (γ2). The human γ2 subunit was fused to full-length mVenus at its N terminus (mVenus-γ2), and the fusion construct human arrestin3-mVenus was used as previously described (Klewe et al., 2008). All constructs were confirmed by sequencing analysis. A total of 20 μg of plasmid cDNA (e.g. 0.2 μg of hKOR-RLuc8, 15 μg of arrestin3-mVenus, and 4.8 μg of pcDNA3.1) was transfected into HEK-293T cells using polyethylenimine (Polysciences Inc., Warrington, Pa.) in a 1:3 ratio in 10-cm dishes. Cells were maintained in culture with DMEM supplemented with 10% FBS. The transfected ratio among receptor, Gα, β1, and γ2, or arrestin was optimized by testing various ratios of plasmids encoding the different sensors. Experiments were performed 48 hours after transfection.
BRET was performed as described (Guo et al., 2008). Briefly, two days after transfection, cells were harvested, washed, and re-suspended in a phosphate-buffered saline (PBS) solution. Approximately 200,000 cells/well were distributed in 96-well plates, and 5 μM coelenterazine H (luciferase substrate) was added to each well. Five minutes after the addition of coelenterazine H, ligands were added to each well, and after 2 minutes for G protein activation or 5 minutes for arrestin recruitment, the BRET signal was determined by quantifying and calculating the ratio of the light emitted by mVenus, the energy acceptor (510-540 nm), over that emitted by RLuc8, the energy donor (485 nm). The drug-induced BRET signal was normalized, taking the Emax of the ethylketocyclazocine (EKC)-induced response as 100%. […]

[2] = target: T1, KOP receptor; experiment: BRET-based G protein (GαoB) activation assay in HEK293T cells; type: cell-based; parameters: host or cells: HEK293T; conditions: for EC50: hKOP co-expressed with GαoB-RLuc8, β1, mVenus-γ2, read-out: potency (EC50) of GαoB activation at hKOP; for agonistic activity at hKOP (G protein activation), in words: relative to EKC
Excerpt: as §1
(§2) BRET was performed as described (Guo et al., 2008). Briefly, two days after transfection, cells were harvested, washed, and re-suspended in a phosphate-buffered saline (PBS) solution. Approximately 200,000 cells/well were distributed in 96-well plates, and 5 μM coelenterazine H (luciferase substrate) was added to each well. Five minutes after the addition of coelenterazine H, ligands were added to each well, and after 2 minutes for G protein activation or 5 minutes for arrestin recruitment, the BRET signal was determined by quantifying and calculating the ratio of the light emitted by mVenus, the energy acceptor (510-540 nm), over that emitted by RLuc8, the energy donor (485 nm). The drug-induced BRET signal was normalized, taking the Emax of the ethylketocyclazocine (EKC)-induced response as 100%. To measure cAMP accumulation, a BRET-based cAMP in a previously described YFP-Epac-RLuc (CAMYEL) assay was used (Jiang et al., 2007). GαoB B, β1, and γ2 were co-expressed to enhance the signal-to-noise ratio, and the cells were treated for 5 minutes with 100 μM forskolin prior to stimulation (Jiang et al., 2007). The data were normalized and represented as the percentage of forskolin-stimulated cAMP accumulation with 0 defined as the maximal inhibition elicited by EKC.
To assess whether any of these molecules had agonistic activity, a BRET-based G protein activation assay where the hKOP receptor was co-expressed in HEK293T cells with GαoB-RLuc8, β1, and mVenus-γ2 was used. The drug-induced BRET signal is interpreted as a dissociation of and/or conformational change within the Gαβγ complex, and thus, as the activation of the co-expressed G protein.

[3] = target: T1, KOP receptor; experiment: Competitive inhibition of 3H-diprenorphine binding, membranes of transfected HEK293T cells; parameters: host or cells: HEK293T; conditions: for inhibition of 3H-diprenorphine binding: 100 μM compound, room temperature, 1 hour; for inhibition of 3H-diprenorphine binding / Ki: 0.3 nM 3H-diprenorphine; for Ki: means ± S.E.M. (n = 3), read-out: Ki KOP
Procedure: (§3) Two days after transfection with human KOP receptor and GαoB, HEK293T cells were lysed and membranes were prepared in HEPES buffer (NaCl 140 mM, KCl 5.4 mM, HEPES 25 mM, EDTA 1 mM, MgCl2 2 mM, BSA 0.006%, pH 7.4) using a Polytron homogenizer. Membranes were incubated with ^3H-diprenorphine (0.3 nM) (PerkinElmer, Waltham, Mass.) at room temperature for 1 hour in a final volume of 1 ml, in the absence or presence of various concentrations of each small-molecule selected from the virtual screening. Membranes were then harvested using a Brandel cell harvester through a Whatman FPD-24 934AH glass-fiber filter and washed three times with ice-cold wash Buffer (Tris-HCl 10 mM, NaCl 120 mM, pH 7.4). Non-specific binding was determined using 400 nM of NorBNI.
The primary experimental testing of MCKK-1-22 consisted of performing a competitive inhibition binding assay at the hKOP receptor. Membranes of HEK293T cells transfected with the hKOP receptor and GαoB were prepared and incubated with ^3H-diprenorphine (0.3 nM) in the absence or presence of 10 or 100 μM of each small-molecule from the virtual screening.
(§4) To assess the degree of selectivity of MCKK-4, MCKK-5, MCKK-13, MCKK-17R or MCKK-17S for the hKOP over the DOP and MOP receptors, competitive inhibition of ^3H-diprenorphine (0.3 nM) binding in the absence or presence of various concentrations of each molecule were performed, and their Ki values for each receptor were determined (Table 2 below).

[4] = target: T2, MOP receptor (Homo sapiens, UniProt P35372); experiment: BRET-based G protein activation assay; type: cell-based; parameters: expressed in transfected cells
Procedure: as §2

[5] = target: T3, DOP receptor (Homo sapiens, UniProt P41143); experiment: BRET-based G protein activation assay; type: cell-based; parameters: expressed in transfected cells; conditions: for EC50: read-out: potency of G protein activation at DOP
Procedure: as §2

[6] = target: T1, KOP receptor; experiment: G protein bias from BRET-based G protein activation and arrestin recruitment assays; type: cell-based
[7] = target: T2, MOP receptor; experiment: Competitive inhibition of 3H-diprenorphine binding; conditions: 0.3 nM 3H-diprenorphine; means ± S.E.M. (n = 3)
Procedure: as §3, §4

[8] = target: T3, DOP receptor; experiment: Competitive inhibition of 3H-diprenorphine binding; conditions: 0.3 nM 3H-diprenorphine; means ± S.E.M. (n = 3)
Procedure: as §3, §4

| SMILES | agonistic activity at hKOP (G protein activation), in words [2] | inhibition of 3H-diprenorphine binding [3] | bias toward G protein activation over arrestin [6] | Ki [7] [µM] | Ki [8] [µM] | Ki [3] [µM] | also measured |
| --- | --- | --- | --- | --- | --- | --- | --- |
| O=C(CN1CCCC1C(=O)Nc1nccs1)Nc1cccc(F)c1 (racemic) [MCKK-17, 1-(2-(3-fluorophenylamino)-2-oxoethyl)-N-(thiazol-2-yl)pyrrolidine-2-carboxamide] | exhibited agonistic activity | partially but significantly inhibited |  |  |  |  | EC50 [1]: 164 ± 38 µM; EC50 [2]: 8.3 ± 4 µM; inhibition of 3H-diprenorphine binding ([3]; listed as MCKK-17(R/S)): significantly inhibited; agonistic activity at MOP (G protein activation), in words [4]: Neither the racemic nor the MCKK-17 stereoisomers displayed significant activity; EC50 [5]: > 1000 µM |
| CC[C@]12CCN(CC3CC3)[C@H](C(=O)c3ccc(O)cc31)[C@@H]2C [EKC, ethylketocyclazocine] |  |  | non-biased |  |  |  |  |
| O=C(Nc1cccc(-n2cccn2)c1)C1CCCN1Cc1c[nH]cn1 (centres unmarked) [MCKK-4] | None of the other molecules, MCKK-4, MCKK-5 and MCKK-13, significantly activated GoB | partially but significantly inhibited |  | 906 ± 836 | 641 ± 192 | 292 ± 209 |  |
| CN(CC(=O)NC1CCN(Cc2ccccc2)C1)Cc1ccco1 (centres unmarked) [MCKK-5] | None of the other molecules, MCKK-4, MCKK-5 and MCKK-13, significantly activated GoB | partially but significantly inhibited |  | 428 ± 137 | 179 ± 187 | 134 ± 81 |  |
| O=S1(=O)CCC(NCc2cccc(OCCn3ccnc3)c2)C1 (centres unmarked) [MCKK-13] | None of the other molecules, MCKK-4, MCKK-5 and MCKK-13, significantly activated GoB | partially but significantly inhibited |  | > 10000 | 300 ± 99 | 453 ± 27 |  |
| O=C(CN1CCC[C@@H]1C(=O)Nc1nccs1)Nc1cccc(F)c1 [MCKK-17R, (R)-1-(2-(3-fluorophenylamino)-2-oxoethyl)-N-(thiazol-2-yl)pyrrolidine-2-carboxamide] |  |  |  | 508 | 286 | 2900 | EC50 [1]: > 1000 µM; EC50 [2]: 115 ± 9 µM; agonistic activity at MOP (G protein activation), in words [4]: Neither the racemic nor the MCKK-17 stereoisomers displayed significant activity; agonistic activity at DOP (G protein activation), in words [5]: most active enantiomer at the DOP receptor; EC50 [5]: > 1000 µM |
| O=C(CN1CCC[C@H]1C(=O)Nc1nccs1)Nc1cccc(F)c1 [MCKK-17S, (S)-1-(2-(3-fluorophenylamino)-2-oxoethyl)-N-(thiazol-2-yl)pyrrolidine-2-carboxamide] | full agonism relative to EKC; also recorded: more active stereoisomer |  | not biased toward G protein activation over arrestin | > 10000 | > 10000 | 123 ± 38 | EC50 [1]: 123 ± 47 µM; selectivity for hKOP relative to MOP and DOP receptors (G protein activation) [2]: selective for hKOP relative to MOP and DOP receptors; EC50 [2]: 7.2 ± 3.8 µM; selectivity for hKOP over DOP and MOP receptors (binding affinity) [3]: exhibited selectivity for the hKOP receptor; agonistic activity at MOP (G protein activation), in words [4]: Neither the racemic nor the MCKK-17 stereoisomers displayed significant activity; agonistic activity at DOP (G protein activation), in words [5]: did not significantly activate the DOP receptor; EC50 [5]: > 1000 µM |
| O=C(N[C@@H]1CC[C@@]2(O)C3Cc4ccc(O)c5c4[C@@]2(CCN3CC2CC2)[C@H]1O5)c1ccc2ccccc2c1 [NNTA] |  |  | non-biased |  |  |  |  |
| Oc1ccc2c(c1)[C@@]13CCCC[C@@]1(O)[C@@H](C2)N(CC1CCC1)CC3 [butorphanol] |  |  | showed bias toward G protein activation over arrestin |  |  |  |  |
| C[C@H]1[C@H]2Cc3ccc(O)cc3[C@]1(C)CCN2CC1CC1 [cyclazocine] |  |  | showed bias toward G protein activation over arrestin; also recorded: biased toward G protein activation |  |  |  |  |
| CN1CC[C@]23CCCC[C@H]2[C@H]1Cc1ccc(O)cc13 [levorphanol] |  |  | showed bias toward G protein activation over arrestin |  |  |  |  |
